One data set has as its system GAPDH. In words: RT-PCR of spliced and unspliced mRNA (intron retention) in CLL cells, housekeeping gene. The settings on record: for intron retention/splicing inhibition of GAPDH: 100 nM, 15 min to 4 hours; for splicing inhibition of housekeeping gene GAPDH: 4 hours, same concentrations. It counts as cell-based, human. As to the method:
(§1) FIG. 23: FD-895 and PLAD induced inhibition of splicing in CLL: RT-PCR for analysis of spliced and unspliced mRNAs. CLL cells treated with FD-895, PLAD (10, 100 nM), chemotherapeutic agent like bendamustine (33, 100 μM) and F-Ara-A (3, 10, 33 μM) for 4 hours. RT-PCR for DNAJB1 was performed with primers spanning two exons; products were analyzed on ethidium bromide-stained agarose gels (2%) to visualize the correct size of the unspliced mRNAs. […] The exon structure of DNAJB1 gene is indicated. G, human genomic DNA was used as a control; U, unspliced mRNA; S, spliced mRNA.
(§2) CLL cells were treated with 10 and 100 nM of FD-895 and PLAD, 33 and 100 μM of bendamustine and 3, 10, and 33 μM of F-Ara-A for 4 h. Normal B and CLL cells were treated with 100 nM of FD-895 and PLAD and 10 μM of F-Ara-A for 15 minutes, 30 minutes, 1, 2 and 4 h. Total RNA was extracted using mirVana™ miRNA isolation kit (Ambion Life Technology, USA). After DNase treatment, 200 ng total RNA was reverse-transcribed using a SuperScript™ III first-strand synthesis system (Invitrogen). PCR was performed on 10 ng of the obtained cDNA (or human genomic DNA as a control) in 25 μl of reaction mixture containing Plantinum® PCR SuperMix High-fidelity (Invitrogen Life Technology, USA), and 0.1 μM of each primer of the appropriate pair.
(§3) PCR conditions were 94° C. for 3 min; 35 cycles of 94° C. for 30 s, 60° C. for 30 s, and 72° C. for 1 min; followed by 72° C. for 5 min. PCR products were separated on a 2% agarose gel and stained with ethidium bromide.

In data set [1] the test system is DNAJB1. The data set is described as follows: Quantitative RT-PCR of unspliced mRNA in normal B cells. Format: cell-based, human. The conditions noted are these: 4 hours. As to the method:
(§4) Quantitative RT-PCR using primers specific for each intron quantified unspliced mRNA for DNAJB1 (FIG. 25A) and RIOK3 (FIG. 25B). GAPDH was used for normalization. […] Error bars indicate S.D.
(§5) Normal B cells were purified from buffy coats of healthy volunteers, obtained from San Diego blood bank. Positive isolation with Dynabeads® CD19 pan B and DETACHaBEAD CD19 (Invitrogen Life Technologies, USA) were used to achieve more than 95% purity by flow cytometry analysis.
(§6) CLL cells were treated with 100 nM of FD-895 and PLAD and 10 μM of F-Ara-A for 15 minutes, 1 and 4 h. Normal B and CLL cells were treated with 10, 100, and 1000 nM of FD-895 and PLAD and 10 μM of F-Ara-A for 4 h.
(§7) Extraction of total RNA and cDNA synthesis were performed as described earlier. Unspliced mRNA was quantified using a 7900HT fast Real Time PCR System (Applied Biosystems). The amounts of unspliced mRNA of DNAJB1, and RIOK3 were determined by SYBR green (Power SYBR Green PCR Master Mix, Applied Biosystems) real-time quantitative RT-PCR using specific primers designed for the intron of each gene (see additional information section at the end).
(§8) PCR using 0.2 μM of each primer was performed on 20 ng of the obtained cDNA. PCR conditions were 50° C. for 2 min; 95° C. for 10 min; 35 cycles of 94° C. for 20 s, 55° C. for 20 s, followed by 72° C. for 30 s. The mRNA levels were calculated using 2^−ΔΔCT method.^4 GAPDH was used as a control for normalization.

The next data set concerns RIOK3. The description is as above. It counts as cell-based, human. The conditions noted are these: 4 hours. As to the method:
as §4, §5, §6, §7, §8

The next data set relates to HCT-116 cell line. In words: MTT cell proliferation assay. Format: cell-based. The source says:
Structure Activity Relationships (SAR) studies for 1SS, […], 1RS, and […]. It has been reported that ablation of C3, C6 and C7 substituents is detrimental to activity. […] (See FIG. 4). Additional activity was also observed when C17 was left in its natural R configuration.
(In general: Tetrazolium dyes change colour on reduction, which living cells bring about.)

A short description of data set [2]: Hydrolysis, NMR monitoring. It counts as physicochemical. The settings on record: neutral conditions; 10 mM in D2O/DMSO-d6 (10:1) at 37° C. The method, then: FIG. 18A-18B: Hydrolysis of FD-895 (1a). FIG. 18A) NMR monitoring of the incubation of 10 mM 1a in D2O/DMSO-d6 (10:1) at 37° C. Hydrolysis occurs as marked by a shift of the C11 proton (large to small circles). Assignments of 3a, 3b and 3c were made based on coupling constant and gCOSY analyses. FIG. 18B) LdC-HRMS trace depicting the products at 143 h including acids 3a-3c (mass calcd. for C31H52O10Na=607.3453 m/z) along with unhydrolized 1a (mass calcd. for C31H50O9Na=589.3347 m/z). Exact masses [M+Na]^+ are provided for each peak.
Based on this observation, we turned our efforts to apply conventional SAR techniques to identify analogs with improved stability.

In data set [3] the test system is normal T lymphocytes from healthy donor. In words: Flow cytometry, % specific induced apoptosis in normal T lymphocytes. It counts as cell-based, human. The conditions noted are these: normal T cells from healthy donors, 100 nM, 48 hours. The method, then:
FIG. 21: FD-895 and PLAD induce apoptosis in CLL cells not ONLY independently of Tp53 but also independently of SF3B1 mutational status: Primary leukemia B cells from CLL patient with SF3B1 wild, SF3B1 mutation, 17p DEL and normal B and T lymphocytes from healthy donor were incubated with FD-895 and PLAD with 100 nM for 48 hours. After incubation, the samples were harvested and % SIA was measured by flow cytometry as described above. […] Each dots represents number of CLL patient sample and normal B or T cells.
Apoptotic and viable cells were discriminated via flow cytometry of cells stained with 3,3′ dihexyloxacarbocyanine iodide (DiOC6) (Molecular Probes, Eugene, Oreg., USA) and propidium iodine (Sigma, St Louis, Mo., USA), as described.^3 Using this method viable cells exclude PI and stain brightly positive for DiOC6.
(In general: A flow cytometer gives signals particle by particle.)

Data set [4] has as its system DNAJB1. The data set is described as follows: RT-PCR of spliced and unspliced mRNA (intron retention) in CLL cells. Format: cell-based, human. The conditions noted are these: 4 hours, FD-895, PLAD 10, 100 nM, bendamustine 33, 100 μM, F-Ara-A 3, 10, 33 μM. As to the method:
as §1, §2, §3

We go through two compounds from US9604973B2, “Anti-cancer polyketide compounds” (priority 2012, dated 2017).

Entries after “also recorded” stand apart in the source; their conditions may differ.

As usually defined, the IC50 is the concentration that inhibits the measured activity by half. Read a high IC50 as weaker potency in that assay.

Turning to `CCC(OC)C(C)C1OC1C(O)C(C)/C=C/C=C(\C)C1OC(=O)CC(O)CCC(C)(O)C(OC(C)=O)/C=C/C1C` (stereo not shown) [FD-895], the “intron retention/splicing inhibition of GAPDH” value in the data set with GAPDH was “no intron retention/splicing inhibition”. In addition, the “splicing inhibition of housekeeping gene GAPDH” value with GAPDH is listed as “Neither FD-895, PLAD nor chemotherapy agents showed splicing inhibition”. Moreover, the “unspliced mRNA of DNAJB1” value in the data set on DNAJB1 [1] is “did not show significant increase in unspliced mRNA”. In addition, the “unspliced mRNA of RIOK3” value in the data set on RIOK3 was “did not show significant increase in unspliced mRNA”. Moreover, the IC50 in the data set with HCT-116 cell line (HCT-116 cell line, MTT) stood at 23.5 ± 0.2 nM; in the data set on HCT-116 cell line (HCT-116 cell line, MTT, listed as 1RR) it was 24.2 ± 0.9 nM; in the data set with HCT-116 cell line (background statement, cell line not given) it was 24.2 ± 0.9 nM. Also, the hydrolysis result in data set [2] is recorded as “undergoes hydrolysis under neutral conditions”. Moreover, in data set [3], the “apoptosis (% SIA)” value is “did not induce significant cell death; also recorded: did not show significant apoptosis”. Further, the “intron retention/splicing inhibition of DNAJB1” value in the data set on DNAJB1 [4] was “showed intron retention at low concentration”.
Pladienolide B: in the data set with GAPDH, the “intron retention/splicing inhibition of GAPDH” value is “no intron retention/splicing inhibition” and the “splicing inhibition of housekeeping gene GAPDH” value is “Neither FD-895, PLAD nor chemotherapy agents showed splicing inhibition”. Besides, in the data set with DNAJB1 [1], the “unspliced mRNA of DNAJB1” value was “did not show significant increase in unspliced mRNA”. Also, in the data set on RIOK3, the “unspliced mRNA of RIOK3” value was “did not show significant increase in unspliced mRNA”. Moreover, the “apoptosis (% SIA)” value in data set [3] was “did not induce significant cell death; also recorded: did not show significant apoptosis”. In addition, the “intron retention/splicing inhibition of DNAJB1” value in the data set with DNAJB1 [4] was “showed intron retention at low concentration”.
